Reference: patent publication US6670384B2, “Methods of administering epothilone analogs for the treatment of cancer” (Bristol-Myers Squibb Company, priority 2001, dated 2003)
Read-outs that look alike come from different tables or passages of the source.

How the values were obtained:
[1] = Dose escalation study of weekly IV Compound II in cancer patients (MTD, dose limiting toxicity); type: in vivo, human; conditions: 30 minute IV infusion every week
Source text: (§1) A total of 24 cancer patients (12 male and 12 female) received compound II by IV administration to evaluate the maximum tolerated dose (MTD), the dose limiting toxicity (DLT), the pharmacokinitics and pharmacodynamics, and to evaluate the anti-tumor activity of compound II. The median age (range) of the patients was 57 (34-74). 5 patients had breast cancer, 5 patients had head and neck cancer, 2 patients had sarcoma, 2 patients had colorectal cancer, 2 patients had UPT cancer, 2 patients had melanoma, 2 patients had cancer of the esophagus, 1 patient had renal cancer, 1 patient had cervical cancer, 1 patient had thyroid cancer, and 1 patient had anal cancer. 21 patients had received prior chemotherapy (18 patients received neurotoxic agents and 18 patients received radiotherapy). The median number of prior chemotherapy lines including adjuvant (range) was 2 (1-3).
Patients were orally administered compound II on day 1 (for dose levels of 20 mg/m^2 and higher) followed by a 30 minute IV infusion of compound II every week starting on day 7. Patients were administered compound II at doses of 1, 2.5, 5, 10, 20, 25, and 30 mg/m^2.

[2] = test system: colon tumors; assay: Anti-tumor response in previously treated cancer patients, colon tumors; type: in vivo, human; conditions: metastatic colon cancer patients previously treated with chemotherapy
Source text: as §1
(§2) In a second study a total of 12 cancer patients (5 male and 7 female) were orally administered compound II on day 1 followed by a 30 minute IV infusion of compound II every week starting on day 7 at a dose of 25 mg/m^2 to evaluate neurotoxicity of compound II. The median age (range) of the patients was 51 (30-65). 4 patients had colorectal cancer, 3 patients had breast cancer, 2 patients had melanoma, 1 patient had renal cancer, 1 patient had sarcoma, and 1 patient had ovary cancer. […]

[3] = test system: breast tumors; assay: Anti-tumor response in previously treated cancer patients, breast tumors; type: in vivo, human; conditions: breast cancer patients previously treated with chemotherapy
Source text: as §1, §2

[4] = Stability of the drug during dissolution in tertiary butanol/water and lyophilization; type: physicochemical; conditions: tertiary butanol/Water for Injection 1:1 at 5 EC, lyophilized at −16 EC 48 hours, dried at 15 EC 48 hours, light protected
Experimental: [1S-[1R*,3R*(E),7R*,10S*,11R*,12R*,16S*]]-7,11-Dihydroxy-8,8,10,12,16-pentamethyl-3-[1-methyl-2-(2-methyl-4-thiazolyl)ethenyl]-4-aza-17-oxabicyclo[14.1.0]heptadecane-5,9-dione, 9.86 g, was wetted/partially dissolved with 600 mL of a 9:1 mixture of tertiary butanol and Water for Injection USP which had been pre-cooled to 5 EC. Once the drug powder had become completely wetted, dissolution was completed by the addition of 600 mL of a 1:9 mixture of tertiary butanol and Water for Injection and 766 mL of a 1:1 mixture of tertiary butanol and Water for Injection which likewise had been pre-cooled to 5 EC thereby making the final solution a 1:1 mixture. The dissolution was carried out under protection from light.
The solution formed above was promptly lyophilized in a Virtis INOTOP lyophilizer at −16 EC under light protectant conditions over a period of 48 hours. The resultant lyophilized product (lyophile) was then further dried at 15 EC under high vacuum for 48 hours. […] The lyophile was packaged under sterile conditions into 30 mL vials, each containing 10 mg of drug and standard excess to allow for vial/needle/syringe loss.

[5] = Pharmacokinetics of Compound II given orally and intravenously to cancer patients (plasma, LC/MS/MS); type: in vivo, human; conditions: for Tmax / Cmax / bioavailability: human, plasma; for bioavailability: read-out: % F (absolute bioavailability)
Experimental: Patients with Advanced Malignancies were administered Compound II weekly as a 30-minute infusion (a course=3 intravenous weekly administrations). Patients received doses of 1, 2.5, 5, 10, 20, 25, or 30 mg/m^2. […] The dose of oral Compound II administered on Day 6 matched the dose of IV Compound II administered on day 1. Serial plasma sampling was obtained on day 6 and day 1 of course 1 to assess pharmacokinetics by an LC/MS/MS.
Samples were analyzed by adding an internal standard to 0.2 mL of plasma sample, precipitating with acetone, and then extracting the supernatant with 1-chlorobutane. The organic layer was removed and evaporated to dryness. The residue was reconstituted and injected into the LC/MS/MS system. Chromatographic separation was achieved, isocratically, on a YMC ODS-AQ column (4.6×50 mm, 3:m) with a mobile phase of acetonitrile:0.01M ammonium acetate, pH 5.0 (65:35). Detection was by negative electrospray tandem mass spectrometry. The standard curve, which ranged from 2 to 500 ng/mL for all analytes and was fitted to a 1/x weighted quadratic regression model.
The propylene glycol/ethanol mixture was prepared by mixing 80 parts by volume of propylene glycol and 20 parts by volume of ethanol in a suitable container and gently swirling the container until the solution was completely mixed.
Buffer for use with Compound II was constituted with water for injection (WFI).
Compound II was prepared for administration to patients by using a suitable syringe to slowly inject 2.5, 5, or 10 mL of the propylene glycol/ethanol mixture into the 20 cc vial containing 25 mg/vial of Compound II, to give concentrations of 10, 5, or 2.5 mg/mL, respectively, depending on the dose to be administered to the patient. The syringe was removed and the vial shaken vigorously for 10 seconds. The vial was placed in a sonication bath and sonicated until the solution became clear. Vials were pooled depending on the dose.
The bottle was shaken vigorously or sonicated with intermittent shaking until a clear solution was obtained.
Following oral administration on day 6, 7 mL blood samples was collected into Becton Dickinson Vacutainer tubes with K3EDTA as anticoagulent (lavender-colored top) according to the following schedule (expressed as hours:minutes from the start of the oral administration): predose, 00:15, 00:30, 00:45, 1:00, 1:30, 2:00, 3:00, 4:00, 6:00, 8:00, 24:00, 48:00, and 72:00. Following IV administration on day 1, 7 mL blood samples were collected into Becton Dickinson Vacutainer tubes with K3EDTA as anticoagulent (lavender-colored top) according to the following schedule (expressed as hours:minutes from the start of the IV infusion):predose, 00:15, 00:30 (end-of infusion), 00:45, 1:00, 1:30, 2:00, 3:00, 4:00, 6:00, 8:00, 24:00, 48:00, and 72:00.
Immediately after blood collection, the Vacutainer tubes were inverted several times to ensure mixing with the anticoagulant and then immediately placed on crushed ice. Within 30 minutes of collection, samples were centrifuged for 5 minutes at approximately 2000×g and 0 to 5 EC. The plasma was then transferred to separate pre-labeled screw-capped polypropylene tubes and stored at −70 EC until bioanalysis. Plasma concentrations of Compound II were analyzed using the LC/MS/MS assay.
The plasma concentration versus time data were analyzed using non-compartmental methods. The pharmacokinetic parameters determined for Compound II included the maximum observed plasma concentration (Cmax), time to reach Cmax (Tmax), area under the plasma concentration time curve from time zero to the time of last sampling time T(AUC(0-T)).
A total of 18 patients have received oral Compound II as a solution on day 6 and by IV on day 1.

C/C(=C\c1csc(C)n1)C1C[C@@H]2O[C@]2(C)CCC[C@H](C)[C@H](O)[C@@H](C)C(=O)C(C)(C)[C@@H](O)CC(=O)N1 (relative stereo) [Compound II, [1S-[1R*,3R*(E),7R*,10S*,11R*, 12R*,16S*,]]-7,11-Dihydroxy-8,8,10,12,16-pentamethyl-3-[1-methyl-2-(2-methyl-4-thiazolyl)ethenyl]-4-aza-7-oxabicyclo[14.1.0]heptadecane-5,9-dione]
weekly dose administered without severe toxicity being observed [1]: up to 30 mg/m^2
tumor response to treatment [2]: responded
tumor response to treatment [3]: responded
degradation of the drug during dissolution, lyophilization and drying [4]: No detectable degradation
AUC(0-T) ([5]; 20 mg/m^2, IV, patients N=3, mean): 796 H · ng/mL
AUC(0-T) ([5]; 20 mg/m^2, oral solution, patients N=3, mean): 404 H · ng/mL
AUC(0-T) ([5]; 25 mg/m^2, IV, patients N=11, mean): 848 H · ng/mL
AUC(0-T) ([5]; 25 mg/m^2, oral solution, patients N=11, mean): 533 H · ng/mL
AUC(0-T) ([5]; 30 mg/m^2, IV, patients N=4, mean): 1155 H · ng/mL
AUC(0-T) ([5]; 30 mg/m^2, oral solution, patients N=4, mean): 708 H · ng/mL
Tmax ([5]; 20 mg/m2, 20 mg/m^2, IV, patients N=3, median): 15 min
Cmax ([5]; 20 mg/m2, 20 mg/m^2, oral solution, patients N=3, mean): 0.142 µg/mL
Tmax ([5]; 20 mg/m2, 20 mg/m^2, oral solution, patients N=3, median): 60 min
Tmax ([5]; 25 mg/m2, 25 mg/m^2, IV, patients N=11, median): 30 min
Cmax ([5]; 25 mg/m2, 25 mg/m^2, oral solution, patients N=11, mean): 0.18 µg/mL
Tmax ([5]; 25 mg/m2, 25 mg/m^2, oral solution, patients N=11, median): 30 min
Tmax ([5]; 30 mg/m2, 30 mg/m^2, IV, patients N=4, median): 30 min
Cmax ([5]; 30 mg/m2, 30 mg/m^2, oral solution, patients N=4, mean): 0.274 µg/mL
Tmax ([5]; 30 mg/m2, 30 mg/m^2, oral solution, patients N=4, median): 30 min
Cmax ([5]; 20 mg/m^2, IV 30-minute infusion, patients N=3, mean): 0.251 µg/mL
bioavailability ([5]; 20 mg/m^2, oral solution vs IV, patients N=3, mean): 43.5%
Cmax ([5]; 25 mg/m^2, IV 30-minute infusion, patients N=11, mean): 0.447 µg/mL
bioavailability ([5]; 25 mg/m^2, oral solution vs IV, patients N=11, mean): 55.6%
Cmax ([5]; 30 mg/m^2, IV 30-minute infusion, patients N=4, mean): 0.711 µg/mL
bioavailability ([5]; 30 mg/m^2, oral solution vs IV, patients N=4, mean): 62.2%
